Assay results reported in PMC8156206, “Novel N,N′-Disubstituted Selenoureas as Potential Antioxidant and Cytotoxic Agents” (Antioxidants, 2021).

How the values were obtained:
Assay in all cases: cells
Type in all cases: cell-based
NCI-60 cell line panel = tested on: NCI-60 cell line panel
From the text: (§1) The dose–response was also studied in the same 60 cancer cell lines, with outstanding results. […] Table 2 summarizes the GI50, TGI, and LC50 values of representative cell lines. Full data mean GI50 graphs are provided in the Supplementary Materials.

[1] = tested on: MDA-MB-231/ATCC (breast cancer)
From the text: as §1

UO-31 (renal cancer) = tested on: UO-31 (renal cancer)
From the text: as §1

SK-MEL-5 (melanoma) = tested on: SK-MEL-5 (melanoma)
From the text: as §1

[2] = tested on: OVACAR-3 (ovarian cancer)
From the text: as §1

COLO-205 (colon cancer) = tested on: COLO-205 (colon cancer)
From the text: as §1

BT-549 (breast cancer) = tested on: BT-549 (breast cancer)
From the text: as §1

SF-593 (CNS cancer) = tested on: SF-593 (CNS cancer)
From the text: as §1

[3] = tested on: MDA-MB-468 (breast cancer)
From the text: as §1

M14 (melanoma) = tested on: M14 (melanoma)
From the text: as §1

HCT-116 (colon cancer) = tested on: HCT-116 (colon cancer)
From the text: as §1

In the case of `COc1ccc(NC(=[Se])NC23CC4CC(CC(C4)C2)C3)cc1` [Compound 6c, N´-adamantyl-N-(4-methoxyphenyl)selenourea], the GI50 (NCI-60 cell line panel; average for the 60 cell lines) is reported as 1.49 µM, the “average TGI” value (NCI-60 cell line panel; average for the 60 cell lines) is reported as 9.17 µM and the LC50 (NCI-60 cell line panel; read-out: LC50 values against 10 of the NCI60 cancer cell lines) is reported as 4.27 to 9.33 µM. It also gave a CC50 ([1]; Homo sapiens, MDA-MB-231, read-out: LC50) of 8.51 µM, a GI50 ([1]; Homo sapiens, MDA-MB-231/ATCC, NCI-60) of 1.78 µM and a TGI ([1]; MDA-MB-231/ATCC, NCI-60) of 3.89 µM. For the same compound, the LC50 (concentration killing 50% of cells) (UO-31 (renal cancer); Homo sapiens, UO-31, read-out: LC50) was 9.77 µM, the GI50 (UO-31 (renal cancer); Homo sapiens, UO-31, NCI-60) was 1.74 µM and the TGI (UO-31 (renal cancer); UO-31, NCI-60) was 4.07 µM. The CC50 (SK-MEL-5 (melanoma); Homo sapiens, SK-MEL-5, read-out: LC50) was 4.27 µM, the GI50 (SK-MEL-5 (melanoma); Homo sapiens, SK-MEL-5, NCI-60) was 0.56 µM and the TGI (SK-MEL-5 (melanoma); SK-MEL-5, NCI-60) was 1.78 µM. The CC50 ([2]; OVACAR3, read-out: LC50) was 7.41 µM, the GI50 ([2]; OVACAR3, OVACAR-3, NCI-60) was 1.38 µM and the TGI ([2]; OVACAR-3, NCI-60) was 3.24 µM. The TGI (COLO-205 (colon cancer); COLO-205, NCI-60) was 3.98 µM, the CC50 (COLO-205 (colon cancer); Homo sapiens, COLO 205, read-out: LC50) was 9.33 µM and the GI50 (COLO-205 (colon cancer); Homo sapiens, COLO-205, NCI-60) was 1.66 µM. It also gave a TGI (BT-549 (breast cancer); BT-549, NCI-60) of 2.29 µM, a CC50 (BT-549 (breast cancer); Homo sapiens, BT-549, read-out: LC50) of 5.62 µM and a GI50 (BT-549 (breast cancer); Homo sapiens, BT-549, NCI-60) of 0.87 µM. For the same compound, the GI50 (SF-593 (CNS cancer); SF-593, NCI-60) was 1.91 µM, the TGI (SF-593 (CNS cancer); SF-593, NCI-60) was 4.17 µM and the CC50 (SF-593 (CNS cancer); read-out: LC50) was 9.33 µM. The CC50 ([3]; Homo sapiens, MDA-MB-468, read-out: LC50) was 8.71 µM, the GI50 ([3]; Homo sapiens, MDA-MB-468, NCI-60) was 1.35 µM and the TGI ([3]; MDA-MB-468, NCI-60) was 3.39 µM. For the same compound, the CC50 (M14 (melanoma); Homo sapiens, M14, read-out: LC50) was 7.94 µM, the GI50 (M14 (melanoma); Homo sapiens, M14, NCI-60) was 1.38 µM and the TGI (M14 (melanoma); M14, NCI-60) was 3.31 µM. For the same compound, the TGI (HCT-116 (colon cancer); HCT-116, NCI-60) was 2.75 µM, the CC50 (HCT-116 (colon cancer); Homo sapiens, HCT-116, read-out: LC50) was 6.03 µM and the GI50 (HCT-116 (colon cancer); Homo sapiens, HCT-116, NCI-60) was 1.29 µM.
